Measurements reported in ChEMBL document CHEMBL4406882, “The plant-derived chalcone Xanthoangelol targets the membrane of Gram-positive bacteria” (Bioorg Med Chem, 2019).
Active and inactive are the calls of the source.

Experiments:
[1] = system: Staphylococcus aureus; experiment: Induction of membrane integrity impairment in methicillin-resistant Staphylococcus aureus ATCC 700699 at 10 uM measured for 3 hrs by PI staining based fluorescence assay; format: functional, organism-based
[2] = system: Staphylococcus aureus; experiment: Induction of membrane integrity impairment in methicillin-resistant Staphylococcus aureus ATCC 700699 at 20 uM measured for 30 mins by DiOC2(3) probe based fluorescence assay; format: functional, organism-based
[3] = system: Staphylococcus aureus; experiment: Antibacterial activity against mid-exponential growth phase of methicillin-resistant Staphylococcus aureus ATCC 700699 assessed as increase in cell lysis at 25 uM; format: functional, organism-based
[4] = system: Staphylococcus aureus; experiment: Bactericidal activity against methicillin-resistant Staphylococcus aureus ATCC 700699 assessed as reduction in bacterial CFU at 4 times MIC measured for 30 mins; format: functional

Measured: Activity

COc1c(N2C[C@@H]3CCCN[C@@H]3C2)c(F)cc2c(=O)c(C(=O)O)cn(C3CC3)c12
inactive: [1] | [2] | [3] | [4]
